In US20080241919A1, “Defined media for pluripotent stem cell culture” (The Burnham Institute of Medical Research, priority 2003, published 2008):

Test system: human embryonic stem cells (hESCs)
Experiment: Undifferentiated growth of hESCs on human foreskin fibroblast (HFF) feeder layer
Type: cell-based
Procedure: Next, in order to establish a culture system that was free of non-human animal products, the human foreskin fibroblast (HFF) cell line Hs27 was used as a feeder layer. The human foreskin fibroblast (HFF) cell line, Hs27 (ATCC; Manassas, Va.; www.atcc.org) was expanded to create a master bank of frozen cells. The HFFs were plated in gelatin pre-coated 60 mm plates or 6-well plates at a density of 1.7×10^4/cm^2 and inactivated by irradiating at 50 Gy using a ^137Cs gamma-irradiator before being used as feeder cells. Undifferentiated hESCs, although originally maintained on MEFs, were transferred to plates of HFFs that had been mitotically inactivated by gamma irradiation. In the first attempts to transfer the hESCs to the human feeder layers, far more differentiated cells compared to those grown on MEFs were observed. When dealing with hESCs, the undifferentiated state was assessed by three criteria: (a) distinctive and defining stage-specific morphology and size; (b) the expression of immunomarkers associated with pluripotency; and (c) the absence of immunomarkers associated with lineage commitment.
In this media, less than 80% undifferentiated hESC colonies were observed on HFF feeders on every passage.

## bFGF: basic fibroblast growth factor, growth factor added to the defined hESC media
bFGF increased to 20 ng/ml from 4 ng/ml
  size of hESC colonies on HFFs: significantly larger
Medium with bFGF 20 ng/ml
  number of passages undifferentiated hESCs maintained on HFF feeder layers: more than 50 passages
  time undifferentiated hESCs maintained on HFF feeder layers: over 12 months
Medium with bFGF 20 ng/ml, 20% knockout Serum Replacement
  undifferentiated hESC colonies on HFF feeders on every passage: less than 80%
